Columns and labels:
Format in all cases: functional
[1] = molecular target: T1, Mitogen-activated protein kinase (Plasmodium falciparum, UniProt Q25917); experiment: Final concentrations were 1 uM ATP, 0.5 mM DTT, 1 mM MgCl2, 0.5 mg/mL BSA, and 10 ug/ml MAP2 in a buffer of 50 mM HEPES (pH 7.0). 0.5 mg/mL histone III-S served as the substrate (13); 100 uM AMP-PNP, an ATP analog, was used as a control inhibitor. Incubation time was 4 hours.
T1 sequence (Q25917 whole entry): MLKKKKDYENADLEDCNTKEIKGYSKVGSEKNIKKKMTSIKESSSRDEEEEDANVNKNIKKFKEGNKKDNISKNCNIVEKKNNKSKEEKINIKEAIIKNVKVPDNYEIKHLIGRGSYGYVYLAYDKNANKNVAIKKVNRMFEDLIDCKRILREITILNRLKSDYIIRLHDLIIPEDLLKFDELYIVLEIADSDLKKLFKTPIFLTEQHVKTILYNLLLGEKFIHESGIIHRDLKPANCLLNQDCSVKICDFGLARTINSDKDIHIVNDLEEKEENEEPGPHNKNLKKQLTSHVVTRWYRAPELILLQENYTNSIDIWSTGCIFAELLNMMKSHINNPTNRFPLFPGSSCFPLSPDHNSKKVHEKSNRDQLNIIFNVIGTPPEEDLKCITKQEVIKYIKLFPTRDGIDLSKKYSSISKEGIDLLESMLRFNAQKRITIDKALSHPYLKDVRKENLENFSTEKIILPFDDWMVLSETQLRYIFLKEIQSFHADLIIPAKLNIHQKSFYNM

Proline--tRNA ligase = molecular target: T2, Proline--tRNA ligase (Plasmodium falciparum (isolate 3D7), UniProt Q8I5R7); experiment: MMV: ProRS recombinant Plasmodium falciparum Prolyl-tRNA-synthetase, assay with yeast tRNA, ATP, and proline and 3 uM MMV malaria box compound, assay read out with kinase glo as % inhibition.
T2 sequence (Q8I5R7 whole entry): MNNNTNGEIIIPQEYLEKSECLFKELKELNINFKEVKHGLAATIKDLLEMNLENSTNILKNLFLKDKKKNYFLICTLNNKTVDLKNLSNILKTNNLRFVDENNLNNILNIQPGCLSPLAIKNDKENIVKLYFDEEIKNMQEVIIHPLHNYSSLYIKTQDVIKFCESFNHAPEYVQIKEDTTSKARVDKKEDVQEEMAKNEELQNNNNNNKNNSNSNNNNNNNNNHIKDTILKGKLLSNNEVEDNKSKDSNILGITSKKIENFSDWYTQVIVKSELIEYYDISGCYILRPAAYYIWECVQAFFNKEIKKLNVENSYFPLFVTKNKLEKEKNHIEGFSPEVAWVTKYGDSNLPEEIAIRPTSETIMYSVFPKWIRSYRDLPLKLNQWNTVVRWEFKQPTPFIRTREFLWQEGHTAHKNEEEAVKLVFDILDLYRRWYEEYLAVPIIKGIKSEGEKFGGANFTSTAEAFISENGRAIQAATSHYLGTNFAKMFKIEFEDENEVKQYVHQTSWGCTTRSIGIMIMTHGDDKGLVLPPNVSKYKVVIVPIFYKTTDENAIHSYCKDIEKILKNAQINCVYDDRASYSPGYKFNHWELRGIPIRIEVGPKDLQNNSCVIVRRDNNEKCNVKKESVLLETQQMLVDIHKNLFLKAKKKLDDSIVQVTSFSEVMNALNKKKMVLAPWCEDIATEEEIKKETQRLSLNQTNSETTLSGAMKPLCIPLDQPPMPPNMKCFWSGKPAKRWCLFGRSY

Lysine--tRNA ligase = Lysine--tRNA ligase (Plasmodium falciparum (isolate 3D7), UniProt Q8IDJ8); experiment: MMV: KRS recombinant Plasmodium falciparum Lysyl-tRNA-synthetase, assay with yeast tRNA, ATP, and lysine and 3 uM MMV malaria box compound, assay read out with kinase glo as % inhibition.
Lysine--tRNA ligase, sequence (Q8IDJ8 whole entry): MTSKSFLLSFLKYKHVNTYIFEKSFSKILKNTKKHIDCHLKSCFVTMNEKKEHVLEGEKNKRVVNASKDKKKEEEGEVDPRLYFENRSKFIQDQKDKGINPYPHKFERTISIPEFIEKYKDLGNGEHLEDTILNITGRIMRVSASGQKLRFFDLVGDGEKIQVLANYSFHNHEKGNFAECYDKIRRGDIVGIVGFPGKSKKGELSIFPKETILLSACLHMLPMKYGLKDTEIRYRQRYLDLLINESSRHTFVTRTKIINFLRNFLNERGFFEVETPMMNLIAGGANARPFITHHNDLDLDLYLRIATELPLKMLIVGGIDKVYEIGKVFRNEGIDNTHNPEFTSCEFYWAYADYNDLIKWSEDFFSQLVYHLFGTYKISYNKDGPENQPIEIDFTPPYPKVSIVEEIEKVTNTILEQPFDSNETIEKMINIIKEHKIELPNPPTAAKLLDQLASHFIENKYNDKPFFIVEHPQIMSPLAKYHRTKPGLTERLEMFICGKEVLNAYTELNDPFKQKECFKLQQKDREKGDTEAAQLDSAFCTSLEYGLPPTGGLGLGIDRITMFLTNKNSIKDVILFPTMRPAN

[2] = molecular target: T3, Calcium-dependent protein kinase 4 (Plasmodium falciparum (isolate 3D7), UniProt Q8IBS5); experiment: MMV: CDPK4 Protein kinase inhibition assay using recombinant PfCDPK4, syntide2 peptide substrate, ATP and KinaseGlo to measure % inhibition at 1 uM MMV box compound.
T3 sequence (Q8IBS5 whole entry): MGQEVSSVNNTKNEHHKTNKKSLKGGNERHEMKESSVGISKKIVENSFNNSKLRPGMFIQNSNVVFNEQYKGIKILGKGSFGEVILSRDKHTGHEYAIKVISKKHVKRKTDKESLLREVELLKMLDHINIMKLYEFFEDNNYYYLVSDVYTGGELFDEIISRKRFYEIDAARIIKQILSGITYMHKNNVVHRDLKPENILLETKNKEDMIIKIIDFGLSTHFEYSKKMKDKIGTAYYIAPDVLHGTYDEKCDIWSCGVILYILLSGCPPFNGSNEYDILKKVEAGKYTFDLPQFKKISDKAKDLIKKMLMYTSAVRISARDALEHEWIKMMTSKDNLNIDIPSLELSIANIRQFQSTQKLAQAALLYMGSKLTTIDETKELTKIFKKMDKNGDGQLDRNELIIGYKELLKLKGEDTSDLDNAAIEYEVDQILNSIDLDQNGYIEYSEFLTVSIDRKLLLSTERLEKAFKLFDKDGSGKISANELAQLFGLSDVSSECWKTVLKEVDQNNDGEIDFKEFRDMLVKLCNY

[3] = molecular target: Calcium-dependent protein kinase 1 (Plasmodium falciparum, UniProt P62344); experiment: MMV: CDPK1 Protein kinase inhibition assay using recombinant PfCDPK1, syntide 2 peptide substrate, ATP and KinaseGlo to measure % inhibition at 1 uM MMV box compound.
Calcium-dependent protein kinase 1, sequence (P62344 whole entry): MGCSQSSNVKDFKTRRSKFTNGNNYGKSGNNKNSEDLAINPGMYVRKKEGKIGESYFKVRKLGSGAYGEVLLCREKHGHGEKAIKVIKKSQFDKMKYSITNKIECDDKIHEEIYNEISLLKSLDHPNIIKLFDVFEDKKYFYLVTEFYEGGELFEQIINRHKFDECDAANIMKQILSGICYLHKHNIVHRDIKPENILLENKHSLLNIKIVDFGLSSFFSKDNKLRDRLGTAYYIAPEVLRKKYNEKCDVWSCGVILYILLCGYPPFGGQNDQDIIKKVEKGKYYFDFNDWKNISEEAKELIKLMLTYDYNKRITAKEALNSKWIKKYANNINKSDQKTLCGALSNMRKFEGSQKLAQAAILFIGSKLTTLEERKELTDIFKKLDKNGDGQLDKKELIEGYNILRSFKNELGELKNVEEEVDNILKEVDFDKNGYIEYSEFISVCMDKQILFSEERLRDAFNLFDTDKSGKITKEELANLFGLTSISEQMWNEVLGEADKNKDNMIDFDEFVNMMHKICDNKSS

[4] = molecular target: T4, Putative uncharacterized protein pk7 (Plasmodium falciparum, UniProt O96214); experiment: Final concentrations were 1 uM ATP, 2 mM DTT, 20 mM MgCl2, 2 mM MnCl2, 0.01% BSA, and 6 ug/ml PK7, in a buffer of 20 mM Tris-HCl (pH 7.5). The enzyme itself was the only substrate present (since autophosphorylation occurs); 100 uM 1NA-PP1 was used as a control inhibitor. Incubation time was 3 hours.
T4 sequence (O96214 whole entry): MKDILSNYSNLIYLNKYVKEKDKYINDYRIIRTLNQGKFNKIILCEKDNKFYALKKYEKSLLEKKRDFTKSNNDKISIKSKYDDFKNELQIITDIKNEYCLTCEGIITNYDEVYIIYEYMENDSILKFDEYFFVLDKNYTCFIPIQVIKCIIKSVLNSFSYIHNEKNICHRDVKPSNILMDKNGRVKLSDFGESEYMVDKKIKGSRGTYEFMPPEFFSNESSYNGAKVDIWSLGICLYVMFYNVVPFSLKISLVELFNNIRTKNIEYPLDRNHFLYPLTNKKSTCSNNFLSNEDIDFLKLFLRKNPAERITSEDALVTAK

[5] = molecular target: T5, Cdk-related protein kinase 6 (Plasmodium falciparum, UniProt O77239); experiment: Final concentrations were 1.5 uM ATP, 5 mM MnCl2, and 15 ug/ml PK6 in a buffer of 100 mM Tris-HCl (pH 7.5). 50 ug/mL MBP was provided as the substrate; 10 uM staurosporine was used as a control inhibitor. Incubation time was 3 hours and 40 minutes.The catalytic activity of each kinase was considered proportional to ATP consumed, as determined from measurements of residual [ATP] with the luciferase-based reagent Kinase-Glo (Promega) following incubation. Luminescence (proportional to residual [ATP]) was measured on the plate readers FLx800 (BioTek Instruments, Winooski, VT, USA) and MicroBeta2.
T5 sequence (O77239 whole entry): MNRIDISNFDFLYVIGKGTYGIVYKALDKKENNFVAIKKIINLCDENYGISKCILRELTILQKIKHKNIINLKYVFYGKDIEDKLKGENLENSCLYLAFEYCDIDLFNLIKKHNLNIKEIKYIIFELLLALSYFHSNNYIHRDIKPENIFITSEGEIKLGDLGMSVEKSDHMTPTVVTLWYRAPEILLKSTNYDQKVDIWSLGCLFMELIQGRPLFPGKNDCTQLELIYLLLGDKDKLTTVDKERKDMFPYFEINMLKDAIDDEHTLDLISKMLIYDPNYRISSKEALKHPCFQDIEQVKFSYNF

CCOC(=O)C1=C(C)N=c2sc(=Cc3ccccc3O)c(=O)n2C1c1ccc(OC)c2ccccc12 (stereo unspecified)
IC50 [1]: > 1000 nM | IC50 (Proline--tRNA ligase): > 2500 nM | IC50 (Lysine--tRNA ligase): > 2500 nM | IC50 [2]: > 1000 nM | IC50 [3]: > 1000 nM | IC50 [4]: > 1000 nM | IC50 [5]: > 1000 nM

Nc1ccc(-c2nc3cc(Cc4ccc5[nH]c(-c6ccc(N)cc6)nc5c4)ccc3[nH]2)cc1
IC50 [1]: > 1000 nM | IC50 (Proline--tRNA ligase): > 2500 nM | IC50 (Lysine--tRNA ligase): > 2500 nM | IC50 [2]: > 1000 nM | IC50 [3]: > 1000 nM | IC50 [4]: > 1000 nM | IC50 [5]: > 1000 nM

CCCCOC(=O)c1ccc(Nc2cc(C)nc3ccc(OC)cc23)cc1
IC50 [1]: > 1000 nM | IC50 (Proline--tRNA ligase): > 2500 nM | IC50 (Lysine--tRNA ligase): > 2500 nM | IC50 [2]: > 1000 nM | IC50 [3]: > 1000 nM | IC50 [4]: > 1000 nM | IC50 [5]: > 1000 nM

O=c1cc(NC2CCN(CCCc3ccccc3)CC2)c2cc(Cl)ccc2o1
IC50 [1]: > 1000 nM | IC50 (Proline--tRNA ligase): > 2500 nM | IC50 (Lysine--tRNA ligase): > 2500 nM | IC50 [2]: > 1000 nM | IC50 [3]: > 1000 nM | IC50 [4]: > 1000 nM | IC50 [5]: > 1000 nM

CCOc1ccc(-n2cc(-c3ccccc3)c3c(SCc4cc(C)ccc4C)ncnc32)cc1
IC50 [1]: > 1000 nM | IC50 (Proline--tRNA ligase): > 2500 nM | IC50 (Lysine--tRNA ligase): > 2500 nM | IC50 [2]: > 1000 nM | IC50 [3]: > 1000 nM | IC50 [4]: > 1000 nM | IC50 [5]: > 1000 nM

CC1CCN(Cc2c(O)ccc3cc(-c4nc5ccccc5s4)c(=O)oc23)CC1
IC50 [1]: > 1000 nM | IC50 (Proline--tRNA ligase): > 2500 nM | IC50 (Lysine--tRNA ligase): > 2500 nM | IC50 [2]: > 1000 nM | IC50 [3]: > 1000 nM | IC50 [4]: > 1000 nM | IC50 [5]: > 1000 nM

Cc1ccc2cc3c(N)c4c(C)ccc(C)c4nc3nc2c1
IC50 [1]: > 1000 nM | IC50 (Proline--tRNA ligase): > 2500 nM | IC50 (Lysine--tRNA ligase): > 2500 nM | IC50 [2]: > 1000 nM | IC50 [3]: > 1000 nM | IC50 [4]: > 1000 nM | IC50 [5]: > 1000 nM

COc1ccc(C2C(C(=O)Nc3cccc(OC)c3)c3ccccc3C(=O)N2C2CCCCC2)cc1 (stereo unspecified)
IC50 [1]: > 1000 nM | IC50 (Proline--tRNA ligase): > 2500 nM | IC50 (Lysine--tRNA ligase): > 2500 nM | IC50 [2]: > 1000 nM | IC50 [3]: > 1000 nM | IC50 [4]: > 1000 nM | IC50 [5]: > 1000 nM
